“Also recorded” adds a separate entry of the source. Where two headings read alike, the source gives them in different places.
Assays:
migraine patients [1] = assay: Tolerability, adverse events and palatability in the pilot experiments; format: in vivo, human; conditions: 40 g daily, 4 weeks; 2 patients
[2] = design: species or system human; conditions: in vivo, po
Source text: (§1) Patients diagnosed with medium-high frequency or chronic migraine according to International Headache Society Classification version 3 by an experienced neurologist were included. They were excluded if they had any significant other neurological, psychiatric or medical disorder. A minimum average of 6 migraine days/month was required during the last 3 months. Ten migraine patients (age range: 25-61 years, 1 male, attack frequency range: 6-24 migraine days/months) were included in the pilot study and randomly assigned to four conditions: 1) L-leucine (LL), 2) L-lysine (LY), 3) racemic βHB, 4) D-βHB.
(§2) L-leucine (LL) and L-lysine (LY) are the two completely ketogenic amino acids. Via various steps, unused ketogenic amino acids (i.e. leucine or lysine) are metabolised into KB. While this is commonly known, to the best of our knowledge no data exists on the extent and time frame of such ketogenic amino acids to raise blood βHB levels. For the pharmacokinetics, four migraine patients were instructed to ingest either 13 g LL or 13 g LY on an empty stomach. Blood βHB and glucose concentrations were measured using a portable point-of-care blood ketone meter (Precision Xtra®) and matching test stripes at 5 points in time: 1) Baseline (directly before consumption), 2) 0.5 h after consumption, 3) 1 h after consumption, 4) 2 h after consumption, 5) 3 h after consumption and 6) 4 h after consumption. 13 g roughly correspond to the same number of particles (mmol) as 10 g βHB. Highest average concentrations of βHB were found after 2 and 3 h (mean=0.35 mmol/I; SEM=0.05) and remained levels to remain elevated for over 4 hours (see FIG. 1).
For determining pharmacokinetics, the patients were given 10 g racemic beta-hydroxybutyrate (βHB) orally dissolved in water in 3 different conditions: (1) post cibum (after meal) (2) ante cibum (before meal) (3) 1 hour before meal. Blood βHB and glucose concentrations were measured using a portable point-of-care blood ketone meter (Precision Xtra®) and matching test stripes at 5 points in time: 1) Baseline (directly before consumption), 2) 0.5 h after consumption, 3) 1 h after consumption, 4) 2 h after consumption, 5) 3 h after consumption and 6) 4 h after consumption. […] The levels dropped to near baseline after 2 hours.
Participants were given 10 g D-beta-hydroxybutyrate (βHB) orally dissolved in water in a fasted state. Blood βHB and glucose concentrations were measured using a portable point-of-care blood ketone meter (Precision Xtra®) and matching test stripes at 5 points in time: 1) Baseline (directly before consumption), 2) 0.5 h after consumption, 3) 1 h after consumption, 4) 2 h after consumption, 5) 3 h after consumption and 6) 4 h after consumption (see FIG. 5A). As with racemic βHB, highest average concentrations of βHB were found after approximately 1 h (mean=1.94 mmol/I; SEM=0.48).

[3] = Blood glucose levels after a single oral dose, measured at the same time as βHB; format: in vivo, human; conditions: 10 g single oral dose, ante cibum/fasted
Source text: as §2, with “13 g roughly correspond to the same number of particles (mmol) as 10 g βHB. Highest average concentrations of βHB were found after 2 and 3 h (mean=0.35 mmol/I; SEM=0.05) and remained levels to remain elevated for over 4 hours (see FIG. 1).” left out
For determining pharmacokinetics, the patients were given 10 g racemic beta-hydroxybutyrate (βHB) orally dissolved in water in 3 different conditions: (1) post cibum (after meal) (2) ante cibum (before meal) (3) 1 hour before meal. Blood βHB and glucose concentrations were measured using a portable point-of-care blood ketone meter (Precision Xtra®) and matching test stripes at 5 points in time: 1) Baseline (directly before consumption), 2) 0.5 h after consumption, 3) 1 h after consumption, 4) 2 h after consumption, 5) 3 h after consumption and 6) 4 h after consumption. […]

migraine patients [4] = assay: Tolerability, adverse events and palatability in the pilot experiments; format: in vivo, human
Source text: (§3) Monthly migraine attack frequency was summarized over the last 3 months and the average was used for baseline comparison. Patients were either instructed to take 26 g LL or 26 g LY in two daily doses (one hour before breakfast and one hour before dinner, respectively) for the duration of 4 weeks. They were instructed to refrain from any other changes in medication or food habits for the duration of that period. The primary outcome measure was changes in days with migraines from baseline. Days with migraine were recorded using a mobile app (myheadache.ch) or a pen and paper diary and averaged across participants.
as §3, with “take 20 g βHB,” for “take”
as §3, with “were” for “were either”, “10” for “26”, “racemic βHB” for “LL or 26 g LY in two daily doses (one hour before breakfast and one hour before dinner, respectively)”, “8 weeks, followed by one week wash-out period and then 8 weeks of 10 g D-βHB daily.” for “4 weeks.”

migraine patients [5] = assay: Open-label pilot intervention: change in days with migraine from baseline (headache diary); format: in vivo, human
Source text: as §1, with “D-βHB. […]” for “D-βHB.”
as §3, with “take 20 g βHB,” for “take”
Those two chronic migraineurs (20 or 22 migraine days/month) where instructed to take 20 g racemic βHB daily for 4 weeks and after a 1 week washout period double the dose to 40 g βHB for the following 4 weeks. Migraine days were recorded for the duration of the intervention and patients were instructed to refrain from any other life-style or medication changes. The mean baseline attack frequency was 21 migraine days (SEM=1) and dropped to 11.5 days after 4 weeks of 20 g βHB daily and 6 days after 4 weeks of 40 g βHB daily (see FIG. 4 A). This preventive effect is roughly proportional to the increase in dose, with 20 g βHB leading to 46% reduction in migraine days from baseline (SEM=18.86) and 40 g βHB to a 72% reduction (SEM=12.95; see FIG. 4 B).
as §3, with “were” for “were either”, “10” for “26”, “racemic βHB” for “LL or 26 g LY in two daily doses (one hour before breakfast and one hour before dinner, respectively)”, “8 weeks, followed by one week wash-out period and then 8 weeks of 10 g D-βHB daily.” for “4 weeks.”

[6] = 10 g daily, 8 weeks, 2 patients, mean baseline 13.5 days

In the case of CC(O)CC(=O)O (racemic) [racemic βHB, beta-hydroxybutyric acid], the “Side-effects at increased dose” value (migraine patients [1]) is reported as “increased side-effects further in both patients; also recorded: exacerbated the side-effects”, the “Half-life of blood βHB elevation (in words)” value ([2]; human) is reported as “very short” and the “Time after which blood βHB levels dropped back to (near) baseline” value ([2]; human) is reported as 2 h. The “Time of highest average βHB concentration” value ([2]; human) was “approximately 1 h”, the “Peak blood βHB level relative to LL” value [2] was “approximately double” and the “Change in blood glucose levels after consumption” value [3] was “substantial drop; also recorded: drop in blood glucose”. The “Adverse events / tolerability” value (migraine patients [4]; 20 g daily, 4 weeks, 5 patients) was “severe nausea and vertigo; also recorded: gastrointestinal upset; also recorded: problematic”, the “Average reduction in migraine days compared to baseline” value (migraine patients [5]; 10 g daily, 8 weeks, 2 high-frequency migraineurs (17 and 10 migraine days/month)) was 18.5% and the “Mean migraine days after intervention” value (migraine patients [5]; [6]) was 11 days. The “Average reduction in migraine days compared to baseline” value (migraine patients [5]; 20 g daily in two doses, 4 weeks, 4 medium-high frequency migraineurs (6-22 migraine days/month)) was 51%, the “Reduction in migraine days from baseline” value (migraine patients [5]; 20 g daily, 4 weeks, 2 chronic migraineurs (20 or 22 migraine days/month)) was 46% and the “Mean migraine days after intervention” value (migraine patients [5]; 20 g daily, 4 weeks, 2 chronic migraineurs, mean baseline 21 migraine days) was 11.5 days. For the same compound, the “Mean migraine days after intervention” value (migraine patients [5]; 20 g daily, 4 weeks, mean baseline 16.25 days) was 8 days, the “Range of reduction in migraine days compared to baseline” value (migraine patients [5]; 20 g daily, 4 weeks, range across patients) was 25-80% and the “Mean migraine days after intervention” value (migraine patients [5]; 40 g daily, 4 weeks, 2 chronic migraineurs, mean baseline 21 migraine days) was 6 days.

For CC(O)CC(=O)O (racemic) [βHB, beta-hydroxybutyric acid], the “Tolerability (in words)” value (migraine patients [4]; in comparison to the ketogenic amino acids, dose and isomer not stated) was “well tolerated” and the “Median migraine days after the intervention” value (migraine patients [5]; 20 g daily, 4 weeks, median at baseline 18) was 7 migraine days.

With CC(O)CC(=O)O [D-βHB, D beta-hydroxybutyric (βHB) acid] the “Time of highest average βHB concentration” value [2] was “approximately 1 h”, the “Change in blood glucose levels after consumption” value [3] was “completely stable; also recorded: does not seem to lead to a potentially unwanted drop in blood glucose levels; also recorded: no concomitant drop in blood glucose” and the Side-effects / tolerability (migraine patients [4]; 10 g daily, 8 weeks (2 months), 2 patients) was “No side-effects; also recorded: much better tolerated; also recorded: fewer gastrointestinal side-effects”. For the same compound, the “Mean migraine days after intervention” value (migraine patients [5]; [6]) was 4.25 days.

For CC(C)C[C@H](N)C(=O)O [LL, L-leucine, reference compound], the “Time of highest average βHB concentration” value ([2]; human) was 2 and 3 h and the “Adverse events / tolerability” value (migraine patients [4]; 26 g daily (13 g twice a day)) was “diarrhoea or nausea”.

With NCCCC[C@H](N)C(=O)O [LY, L-lysine, reference compound] the “Adverse events / tolerability” value (migraine patients [4]; 26 g daily (13 g twice a day)) was “diarrhoea or nausea”.

From patent US11166928B2, “Migraine prevention and treatment” (UNIVERSITATS-KINDERSPITAL, priority 2016, dated 2021)
